Paper PMC12040169 (PLOS Biology, 2025)

Assay: in vitro
Details: human, hela cells, % viability
`Cc1ccc(S(=O)(=O)Nc2ccc(N3CCCNCC3)cc2N(C)S(C)(=O)=O)cc1` [CBK000017C] gave a viability at 28.5 h, 10 µM of 113%.
Work on `O=S(=O)(Nc1ccc(N2CCNCC2)nc1)c1ccc(F)cc1F` [CBK000022C] yielded a viability at 28.5 h, 10 µM of 110%.
For `CN(CCOc1ccccc1)c1nccnc1N1CCNCC1` [CBK000035F], the viability at 28.5 h, 10 µM was 109%.
`CC1CN(C(=O)OC(C)(C)C)CCN1` (centres unmarked) [CBK000069C] showed a viability at 28.5 h, 10 µM of 100%.
With `Oc1cccc2c1OCO2` [CBK000070] the viability at 28.5 h, 10 µM was 85.8%.
Work on `CCOC(=O)Cc1csc(NS(=O)(=O)/C=C/c2ccccc2)n1` [CBK000072] yielded a viability at 28.5 h, 10 µM of 101%.
In the case of `c1ccc(-c2nc3cc4ccccc4cc3[nH]2)nc1` [CBK000130], the viability at 28.5 h, 10 µM is reported as 82.5%.
Work on `Cc1oc(-c2ccccc2)nc1CCOc1ccc(NC(=O)c2ccc(Cl)cc2Cl)c(C(=O)O)c1` [CBK000168D] yielded a viability at 28.5 h, 10 µM of 88.6%.
With `O=C(Nc1ccc(Cl)cc1C(=O)O)c1ccccc1Cl` [CBK000171] the viability at 28.5 h, 10 µM was 91.4%.
Compound `Cc1cc(NC(=O)c2ccccc2O)n(C)n1` [CBK000190] has a viability at 28.5 h, 10 µM of 107%.
`O=C(Nc1ccc2[nH]ncc2c1)c1ccccc1Cl` [CBK000191] showed a viability at 28.5 h, 10 µM of 87.8%.
For `CC(C)(C)OC(=O)n1cnc(CC#N)c1` [CBK000202], the viability at 28.5 h, 10 µM was 83.1%.
Work on `CCCNc1nc(O)cc(C(F)(F)F)n1` [CBK000214] yielded a viability at 28.5 h, 10 µM of 95.8%.
For `Cc1nn(C)c(Oc2ccccc2OCc2ccccc2)c1[N+](=O)[O-]` [CBK000281], the viability at 28.5 h, 10 µM was 102%.
In the case of `COc1ccc(S(=O)(=O)n2ccc3cc(N4CCN(C)CC4)ccc32)cc1OC` [CBK000286C], the viability at 28.5 h, 10 µM is reported as 79.6%.
`Cc1nn(C)c(Oc2cccc(C(F)(F)F)c2)c1C(=O)O` [CBK000324] showed a viability at 28.5 h, 10 µM of 102%.
With `COc1cccc2c3c([nH]c12)CCCC3` [CBK000331] the viability at 28.5 h, 10 µM was 95.8%.
In the case of `Cn1cc(C(=O)O)c(NC(=O)c2ccccc2Cl)n1` [CBK000353], the viability at 28.5 h, 10 µM is reported as 95.8%.
Compound `O[C@H](CNCc1ccccc1)COc1cccc2c1C1CCC2CC1` [CBK000370] has a viability at 28.5 h, 10 µM of 92.6%.
`CC(=O)Nc1ccc(S(=O)(=O)Nc2ccnc(N3CCN4CCCC4C3)n2)cc1` (centres unmarked) [CBK000380C] showed a viability at 28.5 h, 10 µM of 91.1%.
For `CC(C)(C)OC(=O)c1cc(C(=O)O)ccc1O` [CBK000394], the viability at 28.5 h, 10 µM was 90%.
Compound `O=C1Nc2ccc(-c3ccsc3)cc2C1(O)O` [CBK000421] has a viability at 28.5 h, 10 µM of 84.5%.
Compound `CCCN(C(C)=O)c1nc(O)cc(C(F)(F)F)n1` [CBK000427] has a viability at 28.5 h, 10 µM of 85.5%.
For `COc1ccc(CNC(=O)N(CCc2ccccc2)CC(C)(C)CN)cc1` [CBK000463C], the viability at 28.5 h, 10 µM was 119%.
Work on `N[C@H]1CC[C@H](N(CCc2ccccc2)C(=O)N[C@@H]2C[C@H]2c2ccccc2)CC1` [CBK000474C] yielded a viability at 28.5 h, 10 µM of 110%.
For `NC1CCC(N(CCc2ccccc2)C(=O)Nc2ccc3c(c2)OCO3)CC1` (centres unmarked) [CBK000480C], the viability at 28.5 h, 10 µM was 83.1%.
With `CC(C)(CN)CN(Cc1cccc2ccccc12)C(=O)NC1C[C@H]1c1ccccc1` (some centres unmarked) [CBK000490C] the viability at 28.5 h, 10 µM was 94.7%.
`COc1cccc(OCCO)c1` [CBK000514] showed a viability at 28.5 h, 10 µM of 93.1%.
`Cc1cc(Cl)cc(Cl)c1S(=O)(=O)Nc1nc(CC(=O)O)cs1` [CBK000573] gave a viability at 28.5 h, 10 µM of 92%.
Work on `Cc1cc(OC(F)(F)F)ccc1S(=O)(=O)Nc1nc(CC(=O)O)cs1` [CBK000575] yielded a viability at 28.5 h, 10 µM of 87.8%.
For `COc1cc2c(cc1OC)CN(C(=O)N(CCN)CCC(C)c1ccccc1)CC2` (centres unmarked) [CBK000612C], the viability at 28.5 h, 10 µM was 80.9%.
`OCCOc1ccc(Cl)c2cccnc12` [CBK000620] showed a viability at 28.5 h, 10 µM of 78.1%.
Compound `O=[N+]([O-])c1ccc(OCCOc2nccnc2N2CCNCC2)c2ncccc12` [CBK000623C] has a viability at 28.5 h, 10 µM of 94.9%.
Work on `O=[N+]([O-])c1ccc(OCCO)cc1` [CBK000628] yielded a viability at 28.5 h, 10 µM of 84.8%.
For `NC(=O)c1ccccc1OCCO` [CBK000640], the viability at 28.5 h, 10 µM was 87.8%.
`CN(C)CCOc1ncccc1OCCO` [CBK000655F] gave a viability at 28.5 h, 10 µM of 98.2%.
Compound `Cc1ccc(S(=O)(=O)N(C)c2ccnc(N3CCN(C)CC3)n2)cc1` [CBK000671] has a viability at 28.5 h, 10 µM of 99.4%.
Work on `N=C(N)NCC(=O)N(CCCc1cc(C(F)(F)F)cc(C(F)(F)F)c1)c1ccc2c(c1)OCO2` [CBK000702T] yielded a viability at 28.5 h, 10 µM of 80.1%.
